Assay results published in patent US4895841A (priority 1987, dated 1990).
Where a name gives a salt, the structure may show the parent alone.

molecular target: T1, acetylcholinesterase (Mus musculus, UniProt P21836); experiment: biochemical; assay type: biochemical; conditions: not given
T1 construct: A mouse brain homogenate was used as an acetylcholinesterase source; from tissue; host or cells: mouse brain homogenate
T1 sequence (P21836 32-614): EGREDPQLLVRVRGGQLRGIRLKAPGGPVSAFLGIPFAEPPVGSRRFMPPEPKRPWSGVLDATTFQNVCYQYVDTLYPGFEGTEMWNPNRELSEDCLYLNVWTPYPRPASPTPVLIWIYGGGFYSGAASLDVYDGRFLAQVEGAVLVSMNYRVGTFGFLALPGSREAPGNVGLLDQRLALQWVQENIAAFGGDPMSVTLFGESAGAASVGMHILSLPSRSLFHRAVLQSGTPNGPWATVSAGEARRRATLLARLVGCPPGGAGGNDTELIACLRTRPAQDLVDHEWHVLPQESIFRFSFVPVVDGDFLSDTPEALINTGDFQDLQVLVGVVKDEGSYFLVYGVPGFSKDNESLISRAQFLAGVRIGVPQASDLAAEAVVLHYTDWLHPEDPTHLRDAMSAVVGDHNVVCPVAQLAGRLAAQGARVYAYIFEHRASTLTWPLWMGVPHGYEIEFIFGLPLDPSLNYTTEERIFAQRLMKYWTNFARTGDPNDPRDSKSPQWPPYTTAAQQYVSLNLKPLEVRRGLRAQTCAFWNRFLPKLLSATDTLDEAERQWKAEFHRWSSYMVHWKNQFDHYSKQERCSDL

SMILES	IC50
COc1cc2c(cc1OC)C(=O)C(CC1CCN(Cc3cccnc3)CC1)C2 (stereo not shown) [Example 238]	72 nM
Cc1ccc2c(c1)C(=O)C(CC1CCN(Cc3ccccc3)CC1)C2 (stereo not shown) [Example 194]	69 nM
O=C1c2cc3c(cc2CC1CC1CCN(Cc2ccccc2)CC1)OCO3 (stereo not shown) [Example 199]	23 nM
CN1CC(=O)N(CCC2CCN(Cc3ccccc3)CC2)c2ccccc2C1=O [Example 70]	280 nM
COc1cc2c(cc1OC)C(=O)C(=CC=CC1CCN(Cc3ccccc3)CC1)C2 [Example 224, 1-benzyl-4-((5,6-dimethoxy-1-oxoindanon)-2-yl)propenylpiperidine]	3 nM
COc1cc2c(cc1O)CC(CC1CCN(Cc3ccccc3)CC1)C2=O (stereo not shown) [Example 197]	380 nM
O=C1C(=CC2CCN(Cc3ccccc3)CC2)Cc2cc3c(cc21)OCO3 [Example 217]	140 nM
Cc1cccc2c1CC(CC1CCN(Cc3ccccc3)CC1)C2=O (stereo not shown) [Example 195]	7.1 nM
COc1ccc2c(c1OC)C(=O)C(=CC1CCN(Cc3ccccc3)CC1)C2 [Example 209]	430 nM
CN1c2ccccc2C(=O)N(CCC2CCN(Cc3ccccc3)CC2)c2ccccc21 [Example 12, 10-[4'-(1'-Benzylpiperidine)ethyl]-10,11-dihydro-5-methyl-5H-dibenzo[b,e][1,4]diazepin-11-one hydrochloride]	40 nM
O=C(NCCC1CCN(Cc2ccccc2)CC1)c1ccoc1 [Example 24, N-[4'-(1'-Benzylpiperidine)ethyl]-3-furancarboxylic amide hydrochloride]	1100 nM
CC(CC1CCN(Cc2ccccc2)CC1)C(=O)c1ccccc1 (stereo not shown) [Example 202]	1200 nM
COc1cc2c(cc1OC)C(=O)C(=CCCCCC1CCN(Cc3ccccc3)CC1)C2 [Example 223]	5.4 nM
COc1cc2c(cc1OC)C(=O)C(CC1CCN(Cc3cccc(O)c3)CC1)C2 (stereo not shown) [Example 233]	46 nM
COc1cc2c(cc1OC)CC(CC1CCN(Cc3ccccc3)CC1)=C2 [Example 185, 1-Benzyl-4-[(5,6-dimethoxyinden)-2-yl]methylpiperidine hydrochloride]	0.82 nM
COc1cc2c(cc1OC)C(=O)C(CC1CCN(Cc3cccc4ccccc34)CC1)C2 (stereo not shown) [Example 241]	220 nM
O=C(NCCC1CCN(Cc2ccco2)CC1)c1ccccc1 [Example 124]	2800 nM
COc1cccc2c1CCCC(=O)N2CCC1CCN(Cc2ccccc2)CC1 [Example 65]	1.6 nM
COc1cc2c(c(OC)c1OC)C(=O)C(=CC1CCN(Cc3ccccc3)CC1)C2 [Example 210]	60 nM
COc1cc2c(cc1OC)C(=O)N(C)C(CCC1CCN(Cc3ccccc3)CC1)C2 (stereo not shown) [Example 67]	100 nM
Cc1ccc2c(c1)C(=O)C(=CC1CCN(Cc3ccccc3)CC1)C2 [Example 212]	500 nM
CCOC(=O)N1CCC(CC2Cc3cc(OC)c(OC)cc3C2=O)CC1 (stereo not shown) [Example 182, 4-[(5,6-Dimethoxy-1-indanon)-2-yl]methyl-1-ethoxycarbonylpiperidine]	800 nM
O=C1c2ccccc2Oc2ccccc2N1CCC1CCN(Cc2ccccc2)CC1 [Example 176]	4 nM
COc1cc2c(cc1OC)C(=O)C(CCCC1CCN(Cc3ccccc3)CC1)C2 (stereo not shown) [Example 187, 1-Benzyl-4-[3-[(5,6-dimethoxy-1-indanon)-2-yl]]propylpiperidine hydrochloride]	4400 nM
O=C1CCCc2ccccc2N1CCC1CCN(Cc2ccccc2)CC1 [Example 10, 1-[4'-(1'-Benzylpiperidine)ethyl]-1,2,3,4-tetrahydro-5H-1-benzazepin-2-one hydrochloride]	9 nM
COc1ccc2c(c1)CCCC(=O)N2CCC1CCN(Cc2ccccc2)CC1 [Example 62]	7.5 nM
COc1cc2c(cc1O)C(=O)C(=CC1CCN(Cc3ccccc3)CC1)C2 [Example 214]	8.4 nM
COc1cc2c(cc1OC)C(=O)C(CC1CCN(Cc3cc(OC)c(OC)c(OC)c3)CC1)C2 (stereo not shown) [Example 244]	4900 nM

SMILES	IC50
COc1cc2c(cc1OC)C(=O)C(CC1CCN(Cc3ccc4ccccc4c3)CC1)C2 (stereo not shown) [Example 242]	2900 nM
CC(=CC1CCN(Cc2ccccc2)CC1)C(=O)c1ccccc1 [Example 220]	11000 nM
O=C1c2cc(F)ccc2CC1CC1CCN(Cc2ccccc2)CC1 (stereo not shown) [Example 193]	200 nM
COc1cc2c(cc1OC(C)C)CC(=CC1CCN(Cc3ccccc3)CC1)C2=O [Example 221]	33 nM
COc1cc2c(cc1OC)C(=O)C(CC1CC[N+]([O-])(Cc3ccccc3)CC1)C2 (stereo not shown) [Example 226]	4.9 nM
COc1cc2c(cc1OC)C(=O)C(CC1CCN(Cc3cccc(OCc4ccccc4)c3)CC1)C2 (stereo not shown) [Example 237]	2600 nM
COc1ccc2c(c1OC)CC(=CC1CCN(Cc3ccccc3)CC1)C2=O [Example 208]	62 nM
COc1cc2c(cc1OC)C(=O)C(NC1CCN(Cc3ccccc3)CC1)C2 (stereo not shown) [Example 248]	1400 nM
O=C1C(=CC2CCN(Cc3ccccc3)CC2)C(=O)c2ccccc21 [Example 184, 1-Benzyl-4-[(1,3-indanedion)-2-ylidenyl]methylpiperidine]	> 5000 nM
COc1cc2c(cc1OC(C)C)CC(CC1CCN(Cc3ccccc3)CC1)C2=O (stereo not shown) [Example 203]	9 nM
COc1cc(OC)cc(N(CCC2CCN(Cc3ccccc3)CC2)C(=O)C=Cc2ccc(F)cc2)c1 [Example 18, N-(3'5'-Dimethoxyphenyl)-N-[4'-(1'--benzylpiperidyl)-ethyl]-4-fluorocinnamamide hydrichloride]	680 nM
COc1cc2c(cc1OC)C(=O)N(CCC1CCN(Cc3ccccc3)CC1)C2 [Example 6, 2-[4'-Benzylpiperidine)ethyl]-2,3-dihydro-5,6-dimethoxyoxypyrrolo[3,4-]benzene hydrochloride]	17 nM
Cc1cccc2c1CC(=CC1CCN(Cc3ccccc3)CC1)C2=O [Example 213]	50 nM
O=C1C(=CC2CCN(Cc3ccccc3)CC2)CCc2ccccc21 [Example 218]	20000 nM
COc1cc2c(cc1OCc1ccccc1)CC(=CC1CCN(Cc3ccccc3)CC1)C2=O [Example 215]	4.2 nM
COc1cc2c(cc1OC)C(=O)C(=CCCC1CCN(Cc3ccccc3)CC1)C2 [Example 186, 1-Benzyl-4-[3-[(5,6-dimethoxy-1-indanon)-2-ylidenyl]]propylpiperidine hydrochloride]	1.5 nM
CCOC(=O)N1CCC(CC2=Cc3cc(OC)c(OC)cc3C2=O)CC1 [Example 183, 4-[(5,6-Dimethoxy-1-indenon)-2-yl]methyl-1-ethoxycarbonylpiperidine]	5300 nM
COc1cc2c(cc1OC)C(=NNc1ccc([N+](=O)[O-])cc1[N+](=O)[O-])C(CC1CCN(Cc3ccccc3)CC1)C2 (stereo not shown) [Example 246]	4400 nM
CN1CC(=O)N(CCC2CCN(Cc3ccccc3)CC2)c2ccccc2C1 [Example 9, 1-[4'-(1'-Benzylpiperidine)ethyl-1,2,3,4-tetrahydro-4-methyl-5H-[1,4]-benzodiazepin-2-one dihydrochloride]	51 nM
O=C(CCCC1CCN(Cc2ccccc2)CC1)c1ccncc1 [Example 45]	360 nM
O=C(NCC1CCN(Cc2ccccc2)C1)c1ccccc1 (stereo not shown) [Example 21, N-[3'-(1'-Benzylpyrrolidine)methyl]benzamide hydrochloride]	50000 nM
COc1ccc(CN2CCC(CC3Cc4cc(OC)c(OC)cc4C3=O)CC2)cc1 (stereo not shown) [Example 236]	3600 nM
CC(=O)N(CCC1CCN(Cc2ccccc2)CC1)c1ccncc1 [Example 101]	110 nM
COc1cc2c(cc1OC)C(=O)C(CC1CCN(Cc3ccc(O)cc3)CC1)C2 (stereo not shown) [Example 234]	1.8 nM
COc1ccc(CN2CCC(CC3Cc4cc(OC)c(OC)cc4C3=O)CC2)cc1OC (stereo not shown) [Example 243]	4000 nM
COc1cccc2c1CC(=CC1CCN(Cc3ccccc3)CC1)C2=O [Example 207]	49 nM
CCOC(=O)c1nccnc1C(=O)NCCC1CCN(Cc2ccccc2)CC1 [Example 72]	20 nM

same assay, conditions: in vitro, mouse brain homogenate; Table 10; read-out: Inhibitory activity on AChE IC50

SMILES	IC50
COc1cc2c(cc1OC)C(=O)C(CC1CCNCC1)C2 (stereo not shown) [Example 179, 4-[(5,6-Dimethoxy-1-indanon)-2-yl]methylpiperidine hydrochloride]	5400 nM
COc1cc2c(cc1OC)C(=O)C(CC1CCN(Cc3ccc(C)cc3)CC1)C2 (stereo not shown) [Example 229]	40 nM

same assay, conditions: read-out: AChE inhibitory activity IC50

SMILES	IC50
O=C(c1ccc(F)cc1)N(CCC1CCN(Cc2ccccc2)CC1)c1ccccc1 [Example 89]	18 nM
COc1ccc(C(=O)CCCC2CCN(Cc3ccccc3)CC2)cc1 [Example 23, 4-[4'-N-Benzyl)piperidyl]-p-methoxybutyrophenone hydrochloride]	72 nM
COc1cc2c(c(OC)c1)C(=O)C(CC1CCN(Cc3ccccc3)CC1)C2 (stereo not shown) [Example 31]	25 nM
O=C(CCC1CCN(Cc2ccccc2)CC1)Nc1ccccc1 [Example 20, 4-(1-Benzylpiperidine)propanailide hydrochloride]	540 nM
CC(=O)N(CCC1CCN(Cc2ccccc2)CC1)c1ccccc1 [Example 17, N-[4'-(1'-Benzylpiperidyl)ethyl]acetanilide]	52 nM
O=C1c2ccccc2NCN1CCC1CCN(Cc2ccccc2)CC1 [Example 52]	800 nM
O=C1Cc2ccccc2CN1CCC1CCN(Cc2ccccc2)CC1 [Example 56]	17 nM
O=C1Nc2ccccc2CN1CCC1CCN(Cc2ccccc2)CC1 [Example 8]	13 nM

same assay, conditions: read-out: Inhibitory activity on AChE IC50

SMILES	IC50
COc1cc2c(cc1OC)C(=O)C(CC1CCN(Cc3cccc(F)c3)CC1)C2 (stereo not shown) [Example 180, 1-(3-Fluorobenzyl)-4-[(5,6-dimethoxy-1-indanon)-2-yl]methylpiperidine hydrochloride]	1 nM
COc1cc2c(cc1OC)C(=O)C(CN1CCC(Cc3ccccc3)CC1)C2 (stereo not shown) [Example 225]	480 nM
COc1cccc2c1CC(CC1CCN(Cc3ccccc3)CC1)C2=O (stereo not shown) [Example 189]	12 nM
COc1cc2c(cc1OC)C(=O)C(CCCCC1CCN(Cc3ccccc3)CC1)C2 (stereo not shown) [Example 204]	35 nM
COc1cc2c(cc1OC)C(=O)C(CCCCCC1CCN(Cc3ccccc3)CC1)C2 (stereo not shown) [Example 205]	14 nM
